Data on 13 molecules can be found in article PMC8397418, “Novel Bis-Thiazole Derivatives: Synthesis and Potential Cytotoxic Activity Through Apoptosis With Molecular Docking Approaches” (Frontiers in Chemistry, 2021).

Where two headings read alike, the source gives them in different places. Some results are limits rather than exact numbers.

Data set [1] has as its system A2780 ovarian cancer cells. As to the kind of experiment: MTT cytotoxicity assay, A2780. The data set is classed as cell-based, human. The conditions noted are these: read-out: IC50 A2780 (Ovarian). On the procedure: (§1) The synthesized derivatives were screened for their cytotoxic activities against five cancer cell lines (two breast cancer cell lines: MCF-7 and MDA-MB-231, two ovarian cancer cell lines: A2780 and KF-28, and one cervical cancer cell line: Hela). This study was performed using serial concentrations of 25, 50, 100, 150, and 200 µM of each compound using the MTT assay. Percentages of cell viability of the tested compounds with serial concentration against the tested panel of cell lines are depicted in Figure 1, in which there is a decrease in the cell viability with increasing concentrations in a dose–response pattern. […] Therefore, compounds 5a, 5b, and 5f were thought worthwhile to further investigate their effects as either cytotoxic or antiproliferative effects and whether any of them is an inducer of apoptotic cell death in the representative cancer cell lines KF-28 and A2780.
(§2) The human ovarian serous carcinoma cell line KF-28 was kindly provided by Prof. Yoshihiro Kikuchi (Department of Obstetrics and Gynecology, National Defense Medical College, Saitama, Japan), and A2780 cell line was purchased from the ECACC (ECACC 93112519). The cells were maintained in RPMI-1640 (Sigma-Aldrich, United States). The cervical cancer cell line, Hela cells, breast cancer cell line, MCF-7, and MDA-MB-231 were purchased from the ATCC and cultured in DMEM. Both types of media were supplemented with 2 mM L-glutamine (Lonza, Belgium), 10% FBS (Sigma, St. Louis, MO, United States), and 1% penicillin/streptomycin (Lonza, Belgium). All cells were incubated at 37°C in 5% CO2 atmosphere (NuAire). All cancer cell lines were cultured according to the routine tissue culture work as discussed by the Freshney group ([Freshney, 2010]). The cells were plated at a density of 5,000 cells in triplicates in a 96-well plate. On the next day, the cells were treated with the indicated compound(s) at the indicated concentrations in a final volume of 100 μL media. Cell viability was assessed after 72 h using MTT solution (Promega) ([Mosmann, 1983]). 20 μL of the reagent was added to each well, the plate was incubated for 3 h, […] was subsequently measured (570 nm) using a plate reader, and then the IC50 values were calculated using Excel ([Tantawy et al., 2020]).

The test system of data set [2] is MDA-MB-231 breast cancer cells. As to the kind of experiment: MTT cytotoxicity assay, MDA-MB-231. The format is cell-based. The conditions noted are these: Homo sapiens, read-out: IC50 MDA-MB-231 (Breast). The method, then:
as §1, §2
For orientation: Formazan colour is commonly taken as a measure of viable cells.

Data set [3] relates to MCF-7 breast cancer cells. As to the kind of experiment: MTT cytotoxicity assay, MCF-7. The format is cell-based, human. The settings on record: read-out: IC50 MCF-7 (Breast). On the procedure: as §1, §2
Data set [4] concerns KF-28 ovarian cancer cells. The data set is described as follows: MTT cytotoxicity assay, KF-28. The format is cell-based, human. The conditions noted are these: 72 h, read-out: IC50 KF-28 (Ovarian). The method, then: as §1, §2
Data set [5] has as its system Hela cervical cancer cells. The data set is described as follows: MTT cytotoxicity assay, Hela. The data set is classed as cell-based. The settings on record: Homo sapiens, 72 h. On the procedure:
as §1, §2

For data set [6], the system named is KF-28 cells. The data set is described as follows: Annexin V-FITC/PI apoptosis assessment. The format is cell-based, human. The conditions noted are these: 48 h, cisplatin 10 μM, DMSO control 0.45%. On the procedure:
Therefore, we decided to use such technique to investigate if the cytotoxic effect of the compounds indicated by MTT and the cell cycle experiments is apoptotic cell death or not. For that purpose, two cell lines, KF-28 and A2780, were stained by annexin V/PI after treatment with different compounds vs. DMSO for two days in parallel with cisplatin as a reference drug. Results from annexin staining analysis show appreciated annexin V–stained populations when cells are treated with compounds 5a–c, 5f, and 9. […] Similar results were obtained from the other cell line, A2780, treated with the same compounds (Figure 2B).
(§3) The cells were seeded into six-well culture plates (3–5 × 10^5 cells/well) and incubated overnight at 37°C, under 5% CO2. The cells were then treated with indicated compounds for 48 h. Next, media supernatants and the cells were collected and washed with ice-cold PBS. Next, the cells were stained with PI (10 mg/ml) for 30 min and analyzed for DNA contents using flow cytometry analysis using an FL2 (λex/em 535/617 nm) signal detector (ACEA Novocyte™ flow cytometer, ACEA Biosciences, Inc., San Diego, CA, United States). For each sample, 12,000 events are acquired. Cell cycle distribution is calculated using a CytoFLex machine and analyzed by CytExpert software. Flow cytometric methodologies (annexin V/PI staining with cell cycle analyses) are carried out as previously described ([Nafie et al., 2020a]; [Nafie et al., 2020b]; [Gad et al., 2020]).

Data set [7] has as its system MEF normal mouse embryonic fibroblast. The data set is described as follows: MTT cytotoxicity assay, MEF. The format is cell-based. The conditions noted are these: n = 3.
Data set [8] concerns KF-28 cells. The data set is described as follows: DNA content and cell cycle analysis (PI, flow cytometry). The data set is classed as cell-based, human. The conditions noted are these: 200 µM, 48 h. The method, then: Studying the cell cycle phases by measuring DNA content is a crucial test that helps in evaluating the impact of a given drug(s) on dividing cells and may reflect the mechanism through which this drug(s) affects those cells. […] Compounds 5a, 5b, 5c, 5f, 5g, and 9 were added to similar numbers of cells at 200 µM for 48 h, and then, the different cell cycle phases were assessed by flow cytometric analysis.
as §3

Setting [9] is: Homo sapiens, A2780, MTT, 72 h, n = 3.
The mark [10] stands for this setting: Homo sapiens, MCF7, MTT, 72 h, n = 3.
Setting [11] is: MTT, n = 3, read-out: IC50 Hela (Cervical).

The IC50 is the concentration that gives 50% inhibition. As usually defined, the melting point is the temperature of the solid-liquid transition.

The molecule `Cc1[nH]c(=NN=C2CCC(=NN=c3[nH]c(C)c(N=Nc4ccc([N+](=O)[O-])cc4)s3)CC2)sc1N=Nc1ccc([N+](=O)[O-])cc1` [5d, 1,4-Bis((5-(4-nitrophenylazo)-4-methylthiazol-2-ylidene)hydrazono)cyclohexane] showed a melting point greater than 300 °C. Moreover, in [1] (Homo sapiens, A2780, 72 h), the IC50 is greater than 200 µM. In addition, the 50% inhibitory concentration (IC50) in [2] (MDA-MB-231, 72 h) was greater than 200 µM. Also, in data set [3] (Homo sapiens, MCF7, 72 h), the IC50 is greater than 200 µM. Moreover, the 50% inhibitory concentration (IC50) in [4] (Homo sapiens) is greater than 200 µM. Further, the IC50 in data set [5] (read-out: IC50 Hela (Cervical)) is greater than 200 µM.
In the case of `Cc1ccccc1N=Nc1sc(=NN=C2CCC(=NN=c3[nH]c(C)c(N=Nc4ccccc4C)s3)CC2)[nH]c1C` [5e, 1,4-Bis((5-(2-tolylazo)-4-methylthiazol-2-ylidene)hydrazono)cyclohexane], the IC50 is 70.6 µM in data set [1] (setting [9]); greater than 200 µM in [2] (MDA-MB-231, MTT, 72 h, n = 3); less than 25 µM in data set [3] (setting [10]); greater than 200 µM in data set [4] (Homo sapiens, MTT, n = 3); greater than 200 µM in data set [5] (setting [11]).
Turning to `c1ccc2sc(-c3csc(=NN=C4CCC(=NN=c5[nH]c(-c6nc7ccccc7s6)cs5)CC4)[nH]3)nc2c1` [13a, 1,4-Bis((4-(2-benzothiazolyl)thiazol-2-ylidene)hydrazono)cyclohexane], the melting point is greater than 300 °C. Moreover, the concentration for half-maximal inhibition (IC50) in data set [1] (setting [9]) stood at 27.2 µM. In addition, the half-maximal inhibitory concentration (IC50) in data set [2] (MDA-MB-231, MTT, 72 h, n = 3) is greater than 200 µM. For the same molecule, in data set [3] (setting [10]), the IC50 is greater than 200 µM. In data set [4] (Homo sapiens, MTT, n = 3), the IC50 was greater than 200 µM. The 50% inhibitory concentration (IC50) in data set [5] (setting [11]) was greater than 200 µM.
`c1ccc2oc(-c3csc(=NN=C4CCC(=NN=c5[nH]c(-c6cc7ccccc7o6)cs5)CC4)[nH]3)cc2c1` [13b, 1,4-Bis((4-(2-benzofuryl)thiazol-2-ylidene)hydrazono)cyclohexane] gave a melting point of 269 to 270 °C.
`O=c1oc2ccccc2cc1-c1csc(=NN=C2CCC(=NN=c3[nH]c(-c4cc5ccccc5oc4=O)cs3)CC2)[nH]1` [13c, 1,4-Bis((4-(3-coumarinyl)thiazol-2-ylidene)hydrazono)cyclohexane] yielded a melting point of 241 to 242 °C. The IC50 in data set [1] (setting [9]) is 33.5 µM. The IC50 in [3] (setting [10]) came out at 178 µM. Further, the IC50 in data set [4] (Homo sapiens, MTT, n = 3) turned out to be 85.7 µM. For the same molecule, the IC50 in [5] (setting [11]) was greater than 200 µM.
Molecule `Clc1ccc(-c2csc(=NN=C3CCC(=NN=c4[nH]c(-c5ccc(Cl)cc5)cs4)CC3)[nH]2)cc1` [13d, 1,4-Bis((4-(4-chlorophenyl)thiazol-2-ylidene)hydrazono)cyclohexane] had a melting point of 230 to 231 °C. Besides, the IC50 in data set [3] (setting [10]) was greater than 200 µM. Moreover, in [5] (setting [11]), the 50% inhibitory concentration (IC50) is greater than 200 µM.
With `O=C1NC(=NN=C2CCC(=NN=C3NC(=O)C(=Cc4ccccc4)S3)CC2)SC1=Cc1ccccc1` [14a, 1,4-Bis((5-benzylidene-4-oxo-thiazolidin-2-ylidene)hydrazono)cyclohexane], the melting point is greater than 300 °C.
For `Cc1ccc(C=C2SC(=NN=C3CCC(=NN=C4NC(=O)C(=Cc5ccc(C)cc5)S4)CC3)NC2=O)cc1` [14b, 1,4-Bis((5-(4-methylbenzylidene)-4-oxo-thiazolidin-2-ylidene)hydrazono)cyclohexane], the melting point lay within 269 to 270 °C.
With `O=C1NC(=NN=C2CCC(=NN=C3NC(=O)C(=Cc4ccc(Cl)cc4)S3)CC2)SC1=Cc1ccc(Cl)cc1` [14c, 1,4-Bis((5-(4-chlorobenzylidene)-4-oxo-thiazolidin-2-ylidene)hydrazono)cyclohexane], the melting point was greater than 300 °C.
Still for that read-out and setting: next, `O=C1NC(=NN=C2CCC(=NN=C3NC(=O)C(=Cc4ccc(Br)cc4)S3)CC2)SC1=Cc1ccc(Br)cc1` [14d, 1,4-Bis((5-(4-bromobenzylidene)-4-oxo-thiazolidin-2-ylidene)hydrazono)cyclohexane]: 290 to 291 °C.
For the molecule `N.N.[Cl][Pt][Cl]` [Cisplatin, cisplatin, reference compound], the IC50 was found to be 1.56 µM in data set [1] (MTT, 72 h, n = 3); 1.21 µM in data set [3] (MTT, 72 h, n = 3); 9.29 µM in data set [4] (MTT, n = 3). The “Total apoptotic cell death (annexin V-positive cells)” value in [6] is recorded as 25%.
For `O=C1CSC(=NN=C2CCC(=NN=C3NC(=O)CS3)CC2)N1` [compound 9, 1,4-Bis((4-oxo-thiazolidin-2-ylidene)hydrazono)cyclohexane], the IC50 in data set [7] was 1.06 µM; in data set [1] (setting [9]), 103 µM; in [2] (MDA-MB-231, MTT, 72 h, n = 3), greater than 200 µM; in [3] (setting [10]), greater than 200 µM; in data set [4] (Homo sapiens, MTT, n = 3), 86.5 µM; in data set [5] (setting [11]), 111 µM. The “Cell cycle phase S population” value in data set [8] worked out at 6.5%. Moreover, the “Cell cycle phase G1 population” value in [8] (DMSO control 72%) turned out to be 78%. Moreover, the “Total apoptotic cell death (annexin V-positive cells)” value in [6] was “did not induce appreciated apoptosis”.
With `CC(=O)c1sc(=NN=C2CCC(=NN=c3[nH]c(C)c(C(C)=O)s3)CC2)[nH]c1C` [compound 11, 1,4-Bis((5-acetyl-4-methylthiazol-2-ylidene)hydrazono)cyclohexane], the melting point was in the range of 280 to 281 °C.
